The target of assay [1] is T1, NAD-dependent protein deacetylase sirtuin-7 (Homo sapiens, UniProt Q9NRC8).
T1 sequence (Q9NRC8 whole entry): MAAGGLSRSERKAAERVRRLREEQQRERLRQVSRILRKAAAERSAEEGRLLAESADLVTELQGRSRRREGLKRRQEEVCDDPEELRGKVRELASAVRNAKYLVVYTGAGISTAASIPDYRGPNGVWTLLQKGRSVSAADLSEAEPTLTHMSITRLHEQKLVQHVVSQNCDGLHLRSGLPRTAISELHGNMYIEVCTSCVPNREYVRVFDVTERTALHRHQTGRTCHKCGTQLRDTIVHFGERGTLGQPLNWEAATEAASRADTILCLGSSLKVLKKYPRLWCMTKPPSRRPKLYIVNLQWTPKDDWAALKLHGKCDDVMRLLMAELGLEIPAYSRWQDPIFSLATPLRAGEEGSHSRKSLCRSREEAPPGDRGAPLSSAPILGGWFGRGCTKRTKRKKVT
Description: Inhibition of SIRT7 (unknown origin) deacetylation activity using Boc-Lys(Ac)-AMC as substrate incubated for 2 hrs by BioTek microplate reader analysis.

For assay [2], the target named is T2, NAD-dependent protein deacetylase sirtuin-2 (Homo sapiens, UniProt Q8IXJ6).
T2 sequence (Q8IXJ6 whole entry): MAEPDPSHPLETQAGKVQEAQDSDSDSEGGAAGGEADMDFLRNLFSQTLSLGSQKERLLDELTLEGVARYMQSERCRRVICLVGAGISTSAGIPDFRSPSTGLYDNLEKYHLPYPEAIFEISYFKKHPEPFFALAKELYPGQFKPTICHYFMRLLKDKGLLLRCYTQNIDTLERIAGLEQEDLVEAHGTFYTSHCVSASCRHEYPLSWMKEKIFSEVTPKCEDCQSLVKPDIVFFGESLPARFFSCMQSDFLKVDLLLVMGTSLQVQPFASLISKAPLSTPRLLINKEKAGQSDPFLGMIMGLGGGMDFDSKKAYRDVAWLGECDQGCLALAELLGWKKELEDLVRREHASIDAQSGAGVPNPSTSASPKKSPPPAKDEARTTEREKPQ
Kind of assay: Inhibition of SIRT2 (unknown origin) deacetylation activity using Boc-Lys(Ac)-AMC as substrate incubated for 2 hrs by BioTek microplate reader analysis.

For assay [3], the target named is NAD-dependent protein deacylase sirtuin-5, mitochondrial (Homo sapiens, UniProt Q9NXA8). Description: Inhibition of SIRT5 (unknown origin) deacetylation activity using Boc-Lys(Ac)-AMC as substrate incubated for 2 hrs by BioTek microplate reader analysis.
The target of assay [4] is T3, NAD-dependent protein lipoamidase sirtuin-4, mitochondrial (Homo sapiens, UniProt Q9Y6E7).
T3 sequence (Q9Y6E7 whole entry): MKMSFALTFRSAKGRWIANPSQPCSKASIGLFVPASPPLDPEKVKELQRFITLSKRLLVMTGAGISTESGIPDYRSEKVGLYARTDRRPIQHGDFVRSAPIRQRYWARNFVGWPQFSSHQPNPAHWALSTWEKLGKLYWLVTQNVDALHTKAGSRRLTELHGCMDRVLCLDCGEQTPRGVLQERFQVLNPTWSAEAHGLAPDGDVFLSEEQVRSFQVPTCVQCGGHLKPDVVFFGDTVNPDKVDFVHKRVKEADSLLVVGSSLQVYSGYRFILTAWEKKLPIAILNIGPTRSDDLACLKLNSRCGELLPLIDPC
Description: Inhibition of SIRT4 (unknown origin) deacetylation activity using Boc-Lys(Ac)-AMC as substrate incubated for 2 hrs by BioTek microplate reader analysis.

In assay [5] the target is T4, NAD-dependent protein deacetylase sirtuin-1 (Homo sapiens, UniProt Q96EB6).
T4 sequence (Q96EB6 whole entry): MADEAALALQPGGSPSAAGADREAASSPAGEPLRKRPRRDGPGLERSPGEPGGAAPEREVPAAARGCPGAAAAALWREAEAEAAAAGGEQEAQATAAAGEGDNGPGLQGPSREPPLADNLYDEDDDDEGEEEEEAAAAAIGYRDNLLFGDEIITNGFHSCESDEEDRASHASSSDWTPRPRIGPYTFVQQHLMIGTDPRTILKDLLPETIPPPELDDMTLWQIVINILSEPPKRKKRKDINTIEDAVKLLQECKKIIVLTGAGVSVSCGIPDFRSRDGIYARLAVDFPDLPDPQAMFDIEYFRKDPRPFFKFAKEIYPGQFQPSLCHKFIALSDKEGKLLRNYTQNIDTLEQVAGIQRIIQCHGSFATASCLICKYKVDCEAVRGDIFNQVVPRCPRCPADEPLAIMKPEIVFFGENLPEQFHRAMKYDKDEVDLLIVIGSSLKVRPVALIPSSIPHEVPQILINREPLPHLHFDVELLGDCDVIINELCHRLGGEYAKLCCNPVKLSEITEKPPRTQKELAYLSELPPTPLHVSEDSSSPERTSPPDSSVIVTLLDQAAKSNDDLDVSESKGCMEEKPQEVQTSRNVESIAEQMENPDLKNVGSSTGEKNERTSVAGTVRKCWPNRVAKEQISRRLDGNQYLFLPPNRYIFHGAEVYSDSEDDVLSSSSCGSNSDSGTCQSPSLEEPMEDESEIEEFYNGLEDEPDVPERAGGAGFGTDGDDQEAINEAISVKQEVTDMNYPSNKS
Kind of assay: Inhibition of SIRT1 (unknown origin) deacetylation activity using Boc-Lys(Ac)-AMC as substrate incubated for 2 hrs by BioTek microplate reader analysis.

In assay [6] the target is T5, NAD-dependent protein deacetylase sirtuin-3, mitochondrial (Homo sapiens, UniProt Q9NTG7).
T5 sequence (Q9NTG7 whole entry): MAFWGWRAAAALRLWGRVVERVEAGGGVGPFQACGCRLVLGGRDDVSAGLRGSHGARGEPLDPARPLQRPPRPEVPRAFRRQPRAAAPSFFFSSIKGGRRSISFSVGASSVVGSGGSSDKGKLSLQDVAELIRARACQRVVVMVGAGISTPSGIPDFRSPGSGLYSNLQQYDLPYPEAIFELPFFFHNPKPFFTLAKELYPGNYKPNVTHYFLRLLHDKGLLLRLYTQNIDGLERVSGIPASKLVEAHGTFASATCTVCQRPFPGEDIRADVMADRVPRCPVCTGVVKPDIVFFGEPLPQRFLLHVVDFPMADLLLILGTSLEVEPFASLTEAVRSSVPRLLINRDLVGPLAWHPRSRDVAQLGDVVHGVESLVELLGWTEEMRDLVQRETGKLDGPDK
Kind of assay: Inhibition of full length N-terminal his-tagged SIRT3 (unknown origin) deacetylation activity expressed in Escherichia coli BL21 (DE3) using RHKK-Ac-AMC as substrate incubated for 2 hrs by FDL analysis relative to control.

NAD-dependent protein deacylase sirtuin-5, mitochondrial, sequence (Q9NXA8 whole entry): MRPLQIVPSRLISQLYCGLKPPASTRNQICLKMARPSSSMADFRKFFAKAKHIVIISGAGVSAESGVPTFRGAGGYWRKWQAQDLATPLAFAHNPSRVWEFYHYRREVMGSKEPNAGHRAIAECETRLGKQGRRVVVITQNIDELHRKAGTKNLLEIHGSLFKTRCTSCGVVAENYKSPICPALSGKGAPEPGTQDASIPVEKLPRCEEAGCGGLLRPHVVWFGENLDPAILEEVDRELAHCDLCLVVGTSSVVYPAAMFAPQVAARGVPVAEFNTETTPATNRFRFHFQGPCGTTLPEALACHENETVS

For `N#Cc1ccc(Cn2c3ccc(Cl)cc3c3cc(C(=O)NCc4ccccn4)ncc32)cc1`, the IC50 in assay [1] is greater than 500 µM; in assay [2], 157 µM; in assay [3], greater than 500 µM; in assay [4], 274 µM; in assay [5] it was 312 µM.

With `CC(/C=C/C(=O)NO)=C\[C@@H](C)C(=O)c1ccc(N(C)C)cc1` [TRICHOSTATIN], the midpoint of inhibition in assay [6], the IC50, lay at 7.88 µM.

As for `COC(=O)c1cc2c(cn1)[nH]c1ccccc12` [BETA-CCM], in assay [6], the half-maximal inhibitory concentration (IC50) was greater than 100 µM.

For the origin of these results see ChEMBL document CHEMBL6078679, “Structure-Guided Discovery of Subtype Selective SIRT6 Inhibitors with a β-Carboline Skeleton for the Treatment of Breast Cancer” (J Med Chem, 2024).
